Measured values taken from ChEMBL document CHEMBL3751682, “Synthesis, anti-inflammatory, ulcerogenic and cyclooxygenase activities of indenopyrimidine derivatives” (Bioorg Med Chem Lett, 2016).

How the values were obtained:
[1] = tested on: Rattus norvegicus; assay: Anti-inflammatory activity in albino Wistar rat assessed as inhibition of carrageenan-induced paw edema at 25 mg/kg, po measured every one hour for 5 hrs; format: functional
[2] = tested on: Rattus norvegicus; assay: Anti-inflammatory activity in albino Wistar rat assessed as inhibition of carrageenan-induced paw edema at 50 mg/kg, po measured every one hour for 5 hrs; format: functional
[3] = tested on: Rattus norvegicus; assay: Ulcerogenicity in albino Wistar rat assessed as ulcer index at 50 mg/kg, po after 20 hrs; format: toxicity, organism-based; conditions: in vivo
[4] = Ratio of IC50 for human COX2 to IC50 for ovine COX1 by prostaglandin biosynthesis assay
[5] = tested on: Rattus norvegicus; assay: Anti-inflammatory activity in albino Wistar rat assessed as inhibition of carrageenan-induced paw edema at 30 mg/kg, po measured every one hour for 5 hrs; format: functional
[6] = tested on: Rattus norvegicus; assay: Ulcerogenicity in albino Wistar rat assessed as ulcer index at 100 mg/kg, po after 20 hrs; format: toxicity, organism-based; conditions: in vivo

Structure (SMILES)	Ratio IC50 [4]	inhibition in vivo at 25 mg/kg [1]	inhibition in vivo at 50 mg/kg [2]	UI [3]	inhibition in vivo at 30 mg/kg [5]	UI [6]
Nc1nc(-c2ccc([N+](=O)[O-])cc2)c2c(n1)-c1ccccc1C2=O		77.3%	81.3%	2.9		
O=C(O)Cc1ccccc1Nc1c(Cl)cccc1Cl [DICLOFENAC]					85.3%	5.7
Nc1nc(-c2ccccc2)c2c(n1)-c1ccccc1C2=O		76.7%	80.7%	3		
COc1cc(-c2nc(N)nc3c2C(=O)c2ccccc2-3)cc(OC)c1OC	0.69	75.3%	78.7%	2.8		

Further lines, with some results ahead:

Ratio IC50 [4]	Structure (SMILES)	inhibition in vivo at 25 mg/kg [1]	inhibition in vivo at 50 mg/kg [2]	UI [3]	inhibition in vivo at 30 mg/kg [5]	UI [6]
0.04	Cc1ccc(-c2cc(C(F)(F)F)nn2-c2ccc(S(N)(=O)=O)cc2)cc1					
0.69	Nc1nc(-c2ccc(Br)cc2)c2c(n1)-c1ccccc1C2=O	76.7%	80%	2.9		
0.7	Nc1nc(-c2cccc([N+](=O)[O-])c2)c2c(n1)-c1ccccc1C2=O	76%	79.3%	2.9		
0.7	Nc1nc(-c2ccc(Cl)cc2)c2c(n1)-c1ccccc1C2=O	76%	78%	3		
0.68	COc1cccc(-c2nc(N)nc3c2C(=O)c2ccccc2-3)c1	75.3%	78%	2.9		
